Laboratory results reported in PubChem BioAssay (NCI).
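48-hour exposure; five concentrations; linearly interpolated endpoints. The concentration for 50% growth inhibition is given as GI50. TGI is the concentration that stops growth completely.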

Key:
Assay in all cases: NCI anticancer screen, dose series, 48 h
[1] = system: KM12 colon
[2] = system: A549 NSCLC
[3] = system: HCT-116 colon
[4] = system: SK-MEL-5 melanoma
[5] = system: SW-620 colon
[6] = system: CAKI-1 renal
[7] = system: SF-295 CNS
[8] = system: 786-0 renal
[9] = system: CCRF-CEM leukemia
[10] = system: EKVX NSCLC
[11] = system: NCI-H226 lung
[12] = system: UACC-257 melanoma
[13] = system: TK-10 renal
[14] = system: SK-MEL-2 melanoma
[15] = system: SF-539 CNS
[16] = system: BT-549 breast
[17] = system: MCF7 breast
[18] = system: HCT-15 colon
[19] = system: MDA-MB-231 breast
[20] = system: NCI-H460 lung
[21] = system: K-562 leukemia
[22] = system: OVCAR-8 ovarian
[23] = system: U251 CNS
[24] = system: NCI/ADR-RES ovarian
[25] = system: RXF 393 renal
[26] = system: HOP-92 NSCLC
[27] = system: MOLT-4 leukemia
[28] = system: MDA-MB-435
[29] = system: ACHN renal
[30] = system: IGROV1 ovarian
[31] = system: COLO 205 colon
[32] = system: M14 melanoma
[33] = system: SNB-19 CNS
[34] = system: PC-3 prostate
[35] = system: OVCAR-5 ovarian
[36] = system: HS 578T breast
[37] = system: RPMI-8226 leukemia
[38] = system: LOX IMVI melanoma
[39] = system: HOP-62 NSCLC
[40] = system: A498 renal
[41] = system: DU-145 prostate
[42] = system: OVCAR-4 ovarian
[43] = system: NCI-H23 lung
[44] = system: UO-31 renal
[45] = system: T-47D breast
[46] = system: SK-MEL-28 melanoma
[47] = system: SN12C renal
[48] = system: SF-268 CNS
[49] = system: HT29 colon
[50] = system: UACC-62 melanoma
[51] = system: HCC-2998 colon
[52] = system: MALME-3M melanoma
[53] = system: OVCAR-3 ovarian
[54] = system: NCI-H522 lung

Structure (SMILES): COc1ccc2c(c1)CCC1C2CCC2(C)C1CCC2(O)CNC(=O)CCCCC1CCSS1 (stereo not drawn)
- GI50 [1]: 2.26 µM
- TGI [1]: > 100 µM
- GI50 [2]: 5.73 µM
- TGI [2]: > 100 µM
- GI50 [3]: 9.3 µM
- TGI [3]: > 100 µM
- GI50 [4]: 7.15 µM
- TGI [4]: > 100 µM
- GI50 [5]: 12.4 µM
- TGI [5]: > 100 µM
- GI50 [6]: 18.1 µM
- TGI [6]: 40.2 µM
- GI50 [7]: 19.4 µM
- TGI [7]: 79.6 µM
- GI50 [8]: 17.7 µM
- TGI [8]: 64 µM
- GI50 [9]: 1.59 µM
- TGI [9]: 4.33 µM
- GI50 [10]: 48 µM
- TGI [10]: > 100 µM
- GI50 [11]: 13.3 µM
- TGI [11]: > 100 µM
- GI50 [12]: 31.9 µM
- TGI [12]: > 100 µM
- GI50 [13]: 17.7 µM
- TGI [13]: 57 µM
- GI50 [14]: 33.2 µM
- TGI [14]: > 100 µM
- GI50 [15]: 18.3 µM
- TGI [15]: 90.8 µM
- GI50 [16]: 19.3 µM
- TGI [16]: 98.4 µM
- GI50 [17]: 10.3 µM
- TGI [17]: 40.8 µM
- GI50 [18]: 3.56 µM
- TGI [18]: > 100 µM
- GI50 [19]: 2.8 µM
- TGI [19]: 8.3 µM
- GI50 [20]: 3.25 µM
- TGI [20]: > 100 µM
- GI50 [21]: 2.63 µM
- TGI [21]: > 100 µM
- GI50 [22]: 11.7 µM
- TGI [22]: > 100 µM
- GI50 [23]: 15.2 µM
- TGI [23]: 56.6 µM
- GI50 [24]: 7.28 µM
- TGI [24]: > 100 µM
- GI50 [25]: 11.7 µM
- TGI [25]: 44 µM
- GI50 [26]: 4.9 µM
- TGI [26]: 23 µM
- GI50 [27]: 1.66 µM
- TGI [27]: > 100 µM
- GI50 [28]: 7.83 µM
- TGI [28]: > 100 µM
- GI50 [29]: 53.6 µM
- TGI [29]: > 100 µM
- GI50 [30]: 22.7 µM
- TGI [30]: > 100 µM
- GI50 [31]: 6.14 µM
- TGI [31]: > 100 µM
- GI50 [32]: 20.8 µM
- TGI [32]: > 100 µM
- GI50 [33]: 18.1 µM
- TGI [33]: 51.1 µM
- GI50 [34]: 5.91 µM
- TGI [34]: > 100 µM
- GI50 [35]: > 100 µM
- TGI [35]: > 100 µM
- GI50 [36]: 13.9 µM
- TGI [36]: > 100 µM
- GI50 [37]: 2.43 µM
- TGI [37]: 9.48 µM
- GI50 [38]: 4.37 µM
- TGI [38]: > 100 µM
- GI50 [39]: 25 µM
- TGI [39]: > 100 µM
- GI50 [40]: 73.4 µM
- TGI [40]: > 100 µM
- GI50 [41]: 46.3 µM
- TGI [41]: > 100 µM
- GI50 [42]: 6.92 µM
- TGI [42]: 45.9 µM
- GI50 [43]: 20.8 µM
- TGI [43]: > 100 µM
- GI50 [44]: 24.9 µM
- TGI [44]: > 100 µM
- GI50 [45]: 3.27 µM
- TGI [45]: 28.9 µM
- GI50 [46]: 64.9 µM
- TGI [46]: > 100 µM
- GI50 [47]: 16.6 µM
- TGI [47]: > 100 µM
- GI50 [48]: 15.9 µM
- TGI [48]: > 100 µM
- GI50 [49]: 2.28 µM
- TGI [49]: 6.81 µM
- GI50 [50]: 13.9 µM
- TGI [50]: 49.4 µM
- GI50 [51]: 2.13 µM
- TGI [51]: 5.52 µM
- GI50 [52]: > 100 µM
- TGI [52]: > 100 µM
- GI50 [53]: 8.65 µM
- TGI [53]: 29.2 µM
- GI50 [54]: 23.7 µM
- TGI [54]: > 100 µM
